Laboratory results taken from PubChem BioAssay (NCI).
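Dose response: 5 concentrations. Exposure: 48 h. Format: 96-well plates. Endpoint: linear interpolation; highest concentration if not reached. TGI: concentration producing complete growth inhibition.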

Key:
Assay in all cases: NCI-60 cell line screen, 48 h
[1] = test system: 786-0 renal
[2] = test system: A549 NSCLC
[3] = test system: ACHN renal
[4] = test system: BT-549 breast
[5] = test system: CCRF-CEM leukemia
[6] = test system: COLO 205 colon
[7] = test system: DU-145 prostate
[8] = test system: EKVX NSCLC
[9] = test system: HCC-2998 colon
[10] = test system: HCT-116 colon
[11] = test system: HCT-15 colon
[12] = test system: HL-60(TB) leukemia
[13] = test system: HOP-62 NSCLC
[14] = test system: HOP-92 NSCLC
[15] = test system: HS 578T breast
[16] = test system: HT29 colon
[17] = test system: IGROV1 ovarian
[18] = test system: K-562 leukemia
[19] = test system: KM12 colon
[20] = test system: LOX IMVI melanoma
[21] = test system: MALME-3M melanoma
[22] = test system: MDA-MB-231 breast
[23] = test system: MDA-MB-435
[24] = test system: MDA-N
[25] = test system: MOLT-4 leukemia
[26] = test system: NCI-H226 lung
[27] = test system: NCI-H23 lung
[28] = test system: NCI-H460 lung
[29] = test system: NCI-H522 lung
[30] = test system: NCI/ADR-RES ovarian
[31] = test system: OVCAR-3 ovarian
[32] = test system: OVCAR-4 ovarian
[33] = test system: OVCAR-5 ovarian
[34] = test system: OVCAR-8 ovarian
[35] = test system: PC-3 prostate
[36] = test system: RPMI-8226 leukemia
[37] = test system: RXF 393 renal
[38] = test system: SF-268 CNS
[39] = test system: SF-295 CNS
[40] = test system: SK-MEL-2 melanoma
[41] = test system: SK-MEL-28 melanoma
[42] = test system: SK-MEL-5 melanoma
[43] = test system: SK-OV-3 ovarian
[44] = test system: SN12C renal
[45] = test system: SNB-19 CNS
[46] = test system: SNB-75 CNS
[47] = test system: SR leukemia
[48] = test system: SW-620 colon
[49] = test system: TK-10 renal
[50] = test system: U251 CNS
[51] = test system: UACC-62 melanoma
[52] = test system: UO-31 renal
[53] = test system: CAKI-1 renal
[54] = test system: M14 melanoma
[55] = test system: SF-539 CNS
[56] = test system: UACC-257 melanoma

Measured: TGI

COc1ccc(N2C(=O)c3cc(C)cnc3S2(=O)=O)cc1
> 100 µM: [1] | [2] | [3] | [4] | [5] | [6] | [7] | [8] | [9] | [10] | [11] | [12] | [13] | [14] | [15] | [16] | [17] | [18] | [19] | [20] | [21] | [22] | [23] | [24] | [25] | [26] | [27] | [28] | [29] | [30] | [31] | [32] | [33] | [34] | [35] | [36] | [37] | [38] | [39] | [40] | [41] | [42] | [43] | [44] | [45] | [46] | [47] | [48] | [49] | [50] | [51] | [52]

O=C1NCCCNCCCNCCCNC(=O)c2cccc1n2
> 100 µM: [1] | [2] | [3] | [4] | [53] | [5] | [6] | [8] | [9] | [10] | [11] | [13] | [15] | [16] | [17] | [18] | [19] | [20] | [54] | [21] | [22] | [23] | [24] | [25] | [26] | [27] | [28] | [29] | [30] | [31] | [32] | [33] | [34] | [35] | [36] | [37] | [38] | [39] | [55] | [40] | [41] | [42] | [43] | [44] | [45] | [46] | [47] | [48] | [49] | [50] | [56] | [51] | [52]
